Data as given in patent US20130071487A1, “XENON-BASED INHALABLE DRUG FOR PREVENTING ADDICTION RELAPSES IN HUMANS” (L'Air Liquide, Societe Anonyme pour l'Etude et …, priority 2010, published 2013).

Assays:
[1] = tested on: alcohol consumption after deprivation; test: Alcohol deprivation effect model (EAD); format: in vivo, male Wistar rats; settings: rat; for effect on alcohol consumption after deprivation (consumption curve versus control) / difference in area under curve versus control group N2/O2: EAD model; for effect on alcohol consumption after deprivation (consumption curve versus control): 50%/50% gas/O2, FIG. 2 and FIG. 3; for difference in area under curve versus control group N2/O2: 50%/50% gas/O2, control 16.34±0.9 g/kg*day; for area under curve of total ethanol consumption: two 1 hour inhalation exposures to 50%/50% gas/O2 mixture, consumption measured daily for 6 post-abstinence days, control N2/O2 16.34±0.9
Text: The alcohol deprivation model (EAD) comprises habituating the animals to consumption of alcohol for a period of 8 weeks, followed by a period of deprivation of 2 weeks, during which alcohol was withdrawn. This cycle is repeated 8 times. After a period of deprivation, access to alcohol causes a significant but temporary increase in alcohol consumption compared to the reference level. This model is ideal for studying behavior during relapse. It was validated with nacamprosate and naltrexone.
The following experimental protocol was followed.
16 male Wistar rats have free and continuous access to 2 feeding bottles, one containing tap water and the other containing 5%, 10% and 20% ethanol (vol./ vol.) in their cages.
The first two-week deprivation period is introduced after 8 weeks of continuously available alcohol, as illustrated in FIG. 1.
After this deprivation period, the rats will have access to alcohol and again to at least 2 more randomly introduced periods of deprivation.
All the animals are divided into 2 groups (8 rats/group) so that for the mean baseline (week 23), the total alcohol consumption will be essentially the same in each group.
On the last day of week 25 at about 9 am, […] animals are exposed to the Xe/O2 (50%/50%) gaseous mixture for 1 hour.
The control group is exposed to N2/O2 (50%/50%). The following day at 9 am all the animals are exposed for a second time to these same gaseous mixtures for 1 hour.
The exposures to the gaseous mixture are represented by two arrows in FIG. 2.
Following this last exposure, the bottles of alcohol will again be offered (post-abstinence days).
Following exposures to the different gases, the total consumption of ethanol (g/kg of body weight) is measured daily at about 10 am, for 6 days.

[2] = tested on: stimuli-induced alcoholic relapse; test: Stimuli-induced alcoholic relapse model; format: in vivo, male Wistar rats; settings: rat, 1 hour gas exposure 24 hours and 3 hours before the relapse test, FIG. 5
Method: Another animal model well-established in the literature was used to evaluate the anti-relapse effects of xenon, namely the stimuli-induced alcoholic relapse model.
This model is based on the fact that taking drugs or alcohol capable of leading to dependence is associated with a number of environmental stimuli (auditory, olfactory, visual) which are themselves likely to lead to a relapse.
Briefly, the experiments were carried out in conditioning chambers equipped with 2 levers allowing the distribution of water or of alcohol.
24 male Wistar rats were used. The animals are trained to self-administer ethanol at 10% by volume during the course of daily sessions lasting 30 minutes.
During the conditioning phase, the animals are trained to distinguish between the availability of alcohol and of water. Stimulus 1 (orange extract) is the signal for availability of alcohol and each pressing of lever No.1 results in conditioned stimulus No.1 (flashing light) and the immediate distribution of alcohol (30 μl). Furthermore, lever No.2 remains unused during the “alcohol sessions” throughout the experiment.
Stimulus n° 2 (anise extract) will give the signal for availability of water during the “water sessions” and each pressing of lever No.2 results in the presentation of conditioned stimulus No.2 (constant light) and the distribution of water (30 μl). […]

[3] = tested on: alcohol consumption following alcohol deprivation; settings: alcohol-dependent rats; cited from earlier work

For `[N-]=[N+]=O` [N2O, nitrous oxide], the “effect on alcohol consumption after deprivation (consumption curve versus control)” value [1] was “reduces this alcohol consumption to a much lesser extent”, the “difference in area under curve versus control group N2/O2” value [1] was 1 and the “area under curve of total ethanol consumption” value [1] was 15.34±1.3 g/kg*day. The “number of presses on the lever delivering the alcohol following exposure to stimulus-1, compared to control N2/O2 50%/50%” value [2] was “no significant effect”.

For `CC(=O)NCCCS(=O)(=O)O` [acamprosate], the “effect on increase in alcohol consumption following alcohol deprivation” value [3] is given as “a reduction was noted in detrimental effects”.

In the case of `[Xe]` [xenon], the “effect on alcohol consumption after deprivation (consumption curve versus control)” value [1] is reported as “reduction in alcohol consumption”, the “difference in area under curve versus control group N2/O2” value [1] is reported as “difference of two units” and the “area under curve of total ethanol consumption” value [1] is reported as 14.28±1.3 g/kg*day. The “number of presses on the lever delivering the alcohol following exposure to stimulus-1, compared to control N2/O2 50%/50%” value [2] was “significant reduction”.
